Assay results taken from patent publication US12152048B2, “Nitroxoline prodrug and use thereof” (Jiangsu Yahong Meditech Co., Ltd., priority 2018, dated 2024).
Values after ≈ are worked out from the molar mass of the structure shown.

Tests used:
[1] = Stability in monkey plasma; assay type: in vitro ADME
From the text: (§1) Experimental instruments: thermostatic shaker (SHA-B, Guohua Electric Appliance Co., Ltd.); centrifuge (5810R, Eppendorf); mass spectrometry (AP4000, Applied Biosystems, USA); liquid chromatography (LC-30AD, Shimadzu); sample injector (CTC Analytics AG System, CTC).
(§2) Test animals: plasma of human (batch number: BRH1343165), rat (batch number: RAT336728), mouse (batch number: MSE280000), dog (batch number: BGL99137) and monkey (batch number: PH-Monkey-20180821) are purchased from Shanghai Sixin Biological Technology Co., Ltd.
(§3) Experimental process: the compound of the present invention was dissolved in an organic solvent to obtain a 1 mM working solution. 3 μL of the working solution were added to 597 μL of pre-incubated human or rat plasma and mixed well. 50 μL of the solution were immediately taken out as the 0 minute sample. The remaining sample was incubated at 37° C., and 50 μL of sample were taken out at 15, 30, 60 and 120 minutes respectively. All the samples taken out were immediately processed to precipitate protein, and centrifuged to obtain a supermate for the determination of the compound concentration by LC/MS/MS.

[2] = Stability in human plasma
Stability in dog plasma = assay type: in vitro ADME
From the text: as §1, §2, §3

[3] = Stability in plasma, overall conclusion (species not stated); conditions: conclusion in words
[4] = Stability in mouse liver microsome; assay type: in vitro ADME; conditions: 2 μM, 37° C., 30 minutes
[5] = Stability in human liver microsome; conditions: 2 μM, 37° C., 30 minutes
Procedure: Experimental instruments: thermostatic shaker (SHA-B, Guohua Electric Appliance Co., Ltd.); centrifuge (5810R, Eppendorf); mass spectrometry (API4000, Applied Biosystems, USA); liquid chromatography (LC-30AD, Shimadzu); sample injector (CTC Analytics AG System, CTC).
Experimental process: 25 μg/mL alamethicin (Aldrich), 5 mM magnesium chloride and 0.5 mg/mL microsome (XENOTECH) were added to 100 mM phosphate buffer to obtain a coenzyme-free reaction solution. A portion of the coenzyme-free reaction solution was added with 1 mM reductive nicotinamide adenine dinucleotide phosphate (Aldrich) and 5 mM uridine diphosphate glucuronic acid (Aldrich) to obtain a coenzyme-containing reaction solution. The working solution of the compound of the present invention was added to the two reaction solutions so that the final concentration of the compound was 2 μM. Immediately after mixing well, 50 μL of the solution were taken out as the 0 minute sample, and 50 μL of the remaining sample were taken out after incubating at 37° C. for 30 minutes. All the samples taken out were immediately processed to precipitate protein, and centrifuged to obtain a supernate for the determination of the compound concentration by LC/MS/MS.

[6] = Determination of water solubility in phosphate buffer; assay type: physicochemical; conditions: for solubility at 24 h: thermodynamic from solid
From the text: Experimental instruments: 96-well filter plate (MSHVN4510 or MSHVN4550, Millipore); electronic digital display vortex mixer (MS3 Digital, IKA); multi-purpose vacuum pump (circulating water type, SHB-111, Zhengzhou Greatwall Scientific Industrial and Trade Co., Ltd.); balance (XSLT05, Mettler-Toledo); comfortable mixer (Eppendorf AG 22331 Hamburg, Eppendorf); liquid chromatography (LC-3AD, Shimadzu); mass spectrometry (API4000, Applied Biosystems, USA); sample injector (Anylytics AG System, CTC). Nitroxoline was prepared according to the method disclosed in Journal of Heterocyclic Chemistry, 1971, vol. 8, p 821 by Wisdom Pharmaceutical Co., Ltd.
Experimental process: 500 μL of phosphate buffer (pH=1.2, 4.5, 6.8 or 7.4) were added to a glass flask, to which 2 mg of compound powder were added. The flask was sealed with a cap and shaked on a mixer (VORTEX-GENIE2) at room temperature for 24 hours. The solution was subjected to vacuum filtration, and the filtrate was processed to determine the compound concentration by LC/MS/MS.

[7] = Stability in rat liver microsome; conditions: 2 μM, 37° C., 30 minutes
[8] = Stability in dog liver microsome; conditions: 2 μM, 37° C., 30 minutes
[9] = aqueous buffer, phosphate buffer pH 7.4, room temperature

From the text for Stability in rat plasma: as §1, §2, §3

SMILES | Percentage of the compound remaining in plasma (Stability in rat plasma; 0 minute) [%] | Percentage of the compound remaining in plasma (Stability in rat plasma; 37° C., 15 minutes) [%] | Percentage of the compound remaining in plasma (Stability in rat plasma; 37° C., 30 minutes) [%] | Percentage of the compound remaining in plasma (Stability in rat plasma; 37° C., 60 minutes) [%] | Percentage of the compound remaining in plasma (Stability in rat plasma; 37° C., 120 minutes) [%] | Percentage of the compound remaining in plasma ([2]; 0 minute) [%] | Percentage of the compound remaining in plasma ([2]; 37° C., 15 minutes) [%] | Percentage of the compound remaining in plasma ([2]; 37° C., 30 minutes) [%] | Percentage of the compound remaining in plasma ([2]; 37° C., 60 minutes) [%] | Percentage of the compound remaining in plasma ([2]; 37° C., 120 minutes) [%] | Percentage of the compound remaining in plasma (Stability in dog plasma; 0 minute) [%] | Percentage of the compound remaining in plasma (Stability in dog plasma; 37° C., 15 minutes) [%] | Percentage of the compound remaining in plasma (Stability in dog plasma; 37° C., 30 minutes) [%] | Percentage of the compound remaining in plasma (Stability in dog plasma; 37° C., 60 minutes) [%] | Percentage of the compound remaining in plasma (Stability in dog plasma; 37° C., 120 minutes) [%] | stability in plasma [3] | Percentage of the compound remaining in human liver microsome ([5]; with coenzyme) [%] | Percentage of the compound remaining in human liver microsome ([5]; without coenzyme) [%] | Percentage of the compound remaining in rat liver microsome ([7]; with coenzyme) [%] | Percentage of the compound remaining in rat liver microsome ([7]; without coenzyme) [%] | other results
CC(C)(C)C(=O)OCOc1ccc([N+](=O)[O-])c2cccnc12 [Compound 4, (5-nitroquinolin-8-yloxy)methyl pivalate] | 100.0 | 0.0 | 0.0 | 0.0 | 0.0 | 100.0 | 80.9 | 70.7 | 54.7 | 31.4 | 100.0 | 80.0 | 56.3 | 32.7 | 18.2 |  |  |  |  |  | Percentage of the compound remaining in plasma ([1]; 0 minute): 100.0%; Percentage of the compound remaining in plasma ([1]; 37° C., 15 minutes): 4.8%; Percentage of the compound remaining in plasma ([1]; 37° C., 30 minutes): 0.3%; Percentage of the compound remaining in plasma ([1]; 37° C., 60 minutes): 0.0%; Percentage of the compound remaining in plasma ([1]; 37° C., 120 minutes): 0.0%
CCC(C)C(C(=O)OC)N(C)C(=O)OCOc1ccc([N+](=O)[O-])c2cccnc12 (stereo not drawn) [Compound 56, methyl 3-methyl-2-(methyl(((5-nitroquinolin-8-yloxy)methoxy)formyl)amino)pentanoate] | 100.0 | 2.8 | 0.1 | 0.0 | 0.0 | 100.0 | 98.9 | 98.2 | 103.6 | 93.2 |  |  |  |  |  | high stability | 0.12 | 71.66 | 0.45 | 62.17 | Percentage of the compound remaining in mouse liver microsome ([4]; with coenzyme): 0.44%; Percentage of the compound remaining in mouse liver microsome ([4]; without coenzyme): 103.05%; solubility at 24 h [6, 9]: 39.8 µg/mL (≈ 98.2 µM); Percentage of the compound remaining in dog liver microsome ([8]; with coenzyme): 14.94%; Percentage of the compound remaining in dog liver microsome ([8]; without coenzyme): 118.35%
COC(=O)CN(C)C(=O)Oc1ccc([N+](=O)[O-])c2cccnc12 [Compound 57, methyl 2-(methyl((5-nitroquinolin-8-yloxy)formyl)amino)acetate] | 100.0 | 0.1 | 0.0 | 0.0 | 0.0 | 100.0 | 99.8 | 93.0 | 76.2 | 60.2 |  |  |  |  |  | high stability | 0.16 | 0.15 | 23.06 | 44.33 | Percentage of the compound remaining in mouse liver microsome ([4]; with coenzyme): 5.57%; Percentage of the compound remaining in mouse liver microsome ([4]; without coenzyme): 76.69%; solubility at 24 h [6, 9]: 138 µg/mL (≈ 432 µM); Percentage of the compound remaining in dog liver microsome ([8]; with coenzyme): 0.03%; Percentage of the compound remaining in dog liver microsome ([8]; without coenzyme): 75.50%
COC(=O)[C@H](Cc1ccccc1)NC(=O)OCOc1ccc([N+](=O)[O-])c2cccnc12 [Compound 58, methyl (S)-2-(((5-nitroquinolin-8-yloxy)methoxy)formamido)-3-phenylpropionate] | 100.0 | 0.0 | 0.0 | 0.0 | 0.0 | 100.0 | 95.2 | 83.6 | 60.9 | 21.6 | 100.0 | 96.3 | 90.4 | 74.4 | 49.8 | high stability |  |  |  |  | 
C[C@@H]1CN(C(=O)OCOc2ccc([N+](=O)[O-])c3cccnc23)C[C@H](C)O1 [Compound 59, (2S,6R)-(5-nitroquinolin-8-yloxy)methyl 2,6-dimethylmorpholine-4-carboxylate] | 100.0 | 95.8 | 94.1 | 92.4 | 92.4 | 100.0 | 102.3 | 100.9 | 103.1 | 100.3 | 100.0 | 96.7 | 95.0 | 102.8 | 99.9 | high stability |  |  |  |  | 
CC1CN(C(=O)OCOc2ccc([N+](=O)[O-])c3cccnc23)CCO1 (stereo not drawn) [Compound 62, (5-nitroquinolin-8-yloxy)methyl 2-methylmorpholine-4-carboxylate] | 100.0 | 92.4 | 97.3 | 95.8 | 89.0 | 100.0 | 95.4 | 101.8 | 99.7 | 92.7 |  |  |  |  |  | high stability |  |  |  |  | 
CC(C)(C)OP(=O)(OCOc1ccc([N+](=O)[O-])c2cccnc12)OC(C)(C)C [Compound 70, di-tert-butyl (5-nitroquinolin-8-yloxy)methyl phosphate] | 100.0 | 93.4 | 80.7 | 84.1 | 72.9 | 100.0 | 85.6 | 89.0 | 75.2 | 74.4 |  |  |  |  |  | high stability | 91.20 | 91.76 | 94.34 | 96.79 | solubility at 24 h ([6]; aqueous buffer, phosphate buffer pH 4.5, room temperature): 843 µg/mL; solubility at 24 h ([6]; aqueous buffer, phosphate buffer pH 6.8, room temperature): 940 µg/mL; solubility at 24 h [6, 9]: 998 µg/mL; water solubility compared with nitroxoline ([6]; conclusion in words): increased by several times; solubility at 24 h ([6]; simulated gastric fluid, phosphate buffer pH 1.2, room temperature): 639 µg/mL; Percentage of the compound remaining in dog liver microsome ([8]; with coenzyme): 91.42%; Percentage of the compound remaining in dog liver microsome ([8]; without coenzyme): 90.90%
CC(C)OC(=O)[C@H](C)NP(=O)(OCOc1ccc([N+](=O)[O-])c2cccnc12)Oc1ccccc1 (stereo partly drawn) [Compound 75] | 100.0 | 0.0 | 0.0 | 0.0 | 0.0 | 100.0 | 98.5 | 94.0 | 87.2 | 65.5 | 100.0 | 98.3 | 95.6 | 80.8 | 67.8 | high stability | 1.64 | 6.45 | 0.00 | 0.02 | Percentage of the compound remaining in dog liver microsome ([8]; with coenzyme): 12.95%; Percentage of the compound remaining in dog liver microsome ([8]; without coenzyme): 48.90%
